Experiments:
[1] = test system: adjuvant arthritis rats; settings: reported in Patent Documents 3, 4 and Non-Patent Documents 3 to 5; cited from earlier work
[2] = test system: experimental allergic encephalomyelitis mice; assay: Experimental allergic encephalomyelitis, KN-93; assay type: in vivo, mouse
Procedure: The efficacy evaluation of KN-93 was performed with the experimental allergic encephalomyelitis mice as an animal model of multiple sclerosis. The experimental allergic encephalomyelitis was caused following the method of Bradley et al. (J. Clinical Investigation, 107: 995-1006, 2001). That is, 150 μg of PLP partial peptide (PLP139-151: NH2—[…]—COOH, SEQ ID NO 12) mixed in a Freund complete adjuvant was injected subcutaneously to a seven-week old female SJL/J mouse (purchased from Charles River Laboratories Japan) at the rear back. The severity of the condition was indicated as a score (disease score) according to the following criteria.
0.5: Slight paralysis of tail
2: Light paralysis of hind leg
3: Medium to intense paralysis of hind leg or light forelimb paralysis
4: Complete paralysis of hind paw or medium to intense paralysis of forelimb
5: Paralysis of four limbs or toward death period
KN-93 was suspended in 0.5% methylcellulose solution (0.1 mg/ml) and 0.1 ml per 10 g mouse weight was subcutaneously administered. In a control group, only 0.5% methylcellulose solution was subcutaneously administered. The administration was started on the 7 days after sensitization and carried out once a day for consecutive 24 days.

SMILES | effects on adjuvant arthritis rats [1] | condition (disease score) ([2]; 1 mg/kg subcutaneous once a day 24 days from 7 days after sensitization, FIG. 12) | death ([2]; 1 mg/kg subcutaneous once a day 24 days, control 7 of 10)
C[C@@H](c1ccc(-c2ccccc2)c(F)c1)c1cc(/N=C(/N)N2CCOCC2)on1 [Compound (I), 3-[(1S)-1-(2-fluorobiphenyl-4-yl)ethyl]-5-{[amino(morpholin-4-yl)methylene]amino}isoxazole] | anti-arthritis effects | – | –
COc1ccc(S(=O)(=O)N(CCO)c2ccccc2CN(C)C/C=C/c2ccc(Cl)cc2)cc1 [KN-93, N-(2-[N-[4-chlorocinnamyl]-N-methylaminomethyl]phenyl)-N-(2-hydroxyethyl)-4-methoxybenzenesulfonamide, reference compound] | – | much lighter as compared with the control group | 2 of 10
